Measured values published in PMC9768162, “Synthesis of macrocyclic nucleoside antibacterials and their interactions with MraY” (Nature Communications, 2022).
≈ marks a conversion by molar mass, not a printed value. Where two headings read alike, the source gives them in different places. Marks after values point to notes of the source that are not given here.

How the values were obtained:
K. pneumoniae [1] = assay: Antibacterial activity, MIC by microdilution broth method (CLSI); format: cell-based; details: Klebsiella pneumoniae, ATCC13883; K. pneumoniae ATCC 13883; CA-MHB, 37 °C, 20 h
A. baumannii [2] = assay: as above; format: cell-based; details: Acinetobacter baumannii, ATCC19606; A. baumannii ATCC 19606; CA-MHB, 37 °C, 20 h
E. faecalis [3] = assay: as above; format: cell-based; details: for MIC: Enterococcus faecalis
M. avium = assay: MIC in 7H9 liquid medium, 2 weeks; format: cell-based; details: Mycobacterium avium, ATCC25291, 336 h, M. avium ATCC 25291, 37 °C, minimum concentration inhibiting at least 50% of growth
M. tuberculosis = assay: MIC in 7H9 liquid medium, 2 weeks; format: cell-based; details: Mycobacterium tuberculosis, 336 h, M. tuberculosis H37Rv, 37 °C, minimum concentration inhibiting at least 50% of growth
[4] = target: T1, MraYSA (S. aureus MraY enzyme) (Staphylococcus aureus, UniProt Q2FZ93); assay: Fluorescence-based MraY inhibitory assay (dansylated Park's nucleotide); details: for MraYSA activity, source data of Fig. 7b, average: average of n=1-3
T1 sequence (Q2FZ93 1-321): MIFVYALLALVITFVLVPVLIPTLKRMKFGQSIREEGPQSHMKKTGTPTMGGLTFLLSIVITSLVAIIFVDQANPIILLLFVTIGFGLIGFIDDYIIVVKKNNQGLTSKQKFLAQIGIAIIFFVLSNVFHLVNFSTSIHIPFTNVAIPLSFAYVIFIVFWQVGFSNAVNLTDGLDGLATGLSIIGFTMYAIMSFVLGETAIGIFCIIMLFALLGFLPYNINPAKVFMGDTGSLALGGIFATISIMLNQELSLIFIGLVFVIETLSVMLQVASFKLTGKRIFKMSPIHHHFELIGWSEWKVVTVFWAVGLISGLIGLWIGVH

E. coli = assay: Antibacterial activity, MIC by microdilution broth method (CLSI); details: E. coli ATCC 25922; CA-MHB, 37 °C, 20 h
P. aeruginosa [5] = assay: as above; format: cell-based; details: Pseudomonas aeruginosa, ATCC27853; P. aeruginosa ATCC 27853; CA-MHB, 37 °C, 20 h
[6] = test system: vancomycin-resistant Enterococci (VRE), clinically isolated E. faecium and E. faecalis; format: cell-based; details: VRE E. faecium ATCC 51559, 51858, E. faecalis 51299 and clinically isolated E. faecium and E. faecalis
E. cloacae [7] = assay: Antibacterial activity, MIC by microdilution broth method (CLSI); format: cell-based; details: Enterobacter cloacae, ATCC13047; E. cloacae ATCC 13047; CA-MHB, 37 °C, 20 h
S. aureus [8] = assay: as above; format: cell-based, Staphylococcus aureus; details: Staphylococcus aureus
E. faecium [9] = assay: as above; format: cell-based, Enterococcus faecium; details: for MIC: Enterococcus faecium, read-out: MIC
E. cloacae [10] = test system: E. cloacae; set-up: method as in PMID 24014169; details: E. cloacae ATCC 13047; cited from earlier work
S. aureus [11] = details: S. aureus ATCC 6538P, cited from earlier work
P. aeruginosa [12] = test system: P. aeruginosa; set-up: method as in PMID 24014169; details: P. aeruginosa ATCC 15692 (footnote e); cited from earlier work
E. faecalis [13] = test system: E. faecalis; set-up: method as in PMID 24014169; details: E. faecalis ATCC 29212; cited from earlier work
A. baumannii [14] = test system: A. baumannii; set-up: method as in PMID 24014169; details: A. baumannii ATCC 19606; cited from earlier work
K. pneumoniae [15] = test system: K. pneumoniae; set-up: method as in PMID 24014169; details: K. pneumoniae ATCC 13883; cited from earlier work
E. faecium [16] = test system: E. faecium; set-up: method as in PMID 24014169; details: cited from earlier work
MraY (E. coli) = test system: MraY (E. coli); set-up: method as in PMID 24014169; details: cited from earlier work
Gram-positive bacteria = test system: Gram-positive bacteria; set-up: method as in PMID 24014169; details: range over strains; cited from earlier work

CCCCCCCCCCCCCCCC(=O)O[C@@H]1C[C@@H]2CN(C1)[C@H](C(=O)O)[C@@H]([C@H]1O[C@@H](n3ccc(=O)[nH]c3=O)[C@H](O)[C@@H]1O)O[C@@H]1O[C@H](CN2)[C@@H](O)[C@H]1O [SPM-3]
MIC (K. pneumoniae [1]): > 64 µg/mL
MIC (A. baumannii [2]): > 64 µg/mL
MIC (E. faecalis [3]; ATCC 51299 / VRE, E. faecalis (VRE) ATCC 51299): 1 µg/mL (≈ 1.3 µM)
MIC (E. faecalis [3]; clinically isolated E. faecalis strain 21): 0.5 µg/mL (≈ 0.65 µM)
MIC (E. faecalis [3]; clinically isolated E. faecalis strain 22): 0.5 µg/mL (≈ 0.65 µM)
MIC (E. faecalis [3]; clinically isolated E. faecalis strain 23): 1 µg/mL (≈ 1.3 µM)
MIC (E. faecalis [3]; clinically isolated E. faecalis strain 24): 1 µg/mL (≈ 1.3 µM)
MIC (E. faecalis [3]; clinically isolated E. faecalis strain 25): 0.5 µg/mL (≈ 0.65 µM)
MIC (E. faecalis [3]; clinically isolated E. faecalis strain 26): 0.5 µg/mL (≈ 0.65 µM)
MIC (E. faecalis [3]; clinically isolated E. faecalis strain 27): 0.5 µg/mL (≈ 0.65 µM)
MIC (E. faecalis [3]; clinically isolated E. faecalis strain 28): 1 µg/mL (≈ 1.3 µM)
MIC (E. faecalis [3]; clinically isolated E. faecalis strain 29): 1 µg/mL (≈ 1.3 µM)
MIC (E. faecalis [3]; clinically isolated E. faecalis strain 30): 0.5 µg/mL (≈ 0.65 µM)
MIC (E. faecalis [3]; clinically isolated E. faecalis strain 31): 1 µg/mL (≈ 1.3 µM)
MIC (E. faecalis [3]; clinically isolated E. faecalis strain 32): 1 µg/mL (≈ 1.3 µM)
MIC (E. faecalis [3]; clinically isolated E. faecalis strain 33): 1 µg/mL (≈ 1.3 µM)
MIC (E. faecalis [3]; clinically isolated E. faecalis strain 34): 0.5 µg/mL (≈ 0.65 µM)
MIC (E. faecalis [3]; clinically isolated E. faecalis strain 35): 1 µg/mL (≈ 1.3 µM)
MIC (range over strains) (E. faecalis [3]; clinically isolated E. faecalis (15 strains)): 0.5 to 1 µg/mL
MIC (M. avium): 4 µg/mL (≈ 5.2 µM)
MIC (M. tuberculosis): 16 µg/mL (≈ 20.8 µM)
IC50 [4]: 41 nM
MraYSA activity, source data of Fig. 7b, average ([4]; compound 0.0001 µM): 97.0831
MraYSA activity, source data of Fig. 7b, average ([4]; compound 0.001 µM): 91.2486
MraYSA activity, source data of Fig. 7b, average ([4]; compound 0.01 µM): 63.9982
MraYSA activity, source data of Fig. 7b, average ([4]; compound 0.1 µM): 42.189
MraYSA activity, source data of Fig. 7b, average ([4]; compound 1 µM): 10.7538
MraYSA activity, source data of Fig. 7b, average ([4]; compound 10 µM): 6.7446
MraYSA activity, source data of Fig. 7b, average ([4]; compound 100 µM): 3.028
fold weaker compared to SPM-1 (MraYSA IC50) ([4]; ratio of IC50 values, SPM-3 vs SPM-1): 4.5 fold
MIC (E. coli): >64 µg/mL
MIC (P. aeruginosa [5]): > 64 µg/mL
MIC (range over strains) [6]: 0.5 to 8 µg/mL
MIC (E. cloacae [7]): > 64 µg/mL
MIC (S. aureus [8]; ATCC29213, 20 h, S. aureus ATCC 29213, CA-MHB, 37 °C, 20 h): 8 µg/mL (≈ 10.4 µM)
MIC (S. aureus [8]; MRSA, 20 h, S. aureus (MRSA) JE2, CA-MHB, 37 °C, performed once): 8 µg/mL (≈ 10.4 µM)
MIC (S. aureus [8]; MRSA, clinically isolated MRSA #1958): 16 µg/mL (≈ 20.8 µM)
MIC (S. aureus [8]; MRSA, clinically isolated MRSA #2071): 16 µg/mL (≈ 20.8 µM)
MIC (S. aureus [8]; MRSA, clinically isolated MRSA #2110): > 64 µg/mL
MIC (S. aureus [8]; MRSA, clinically isolated MRSA #2310): 32 µg/mL (≈ 41.6 µM)
MIC (S. aureus [8]; MRSA, clinically isolated MRSA #2334): > 64 µg/mL
MIC (S. aureus [8]; MRSA, clinically isolated MRSA #2931): 4 µg/mL (≈ 5.2 µM)
MIC (S. aureus [8]; MRSA, clinically isolated MRSA #2932): 32 µg/mL (≈ 41.6 µM)
MIC (S. aureus [8]; MRSA, clinically isolated MRSA #2933): 8 µg/mL (≈ 10.4 µM)
MIC (S. aureus [8]; MRSA, clinically isolated MRSA #2934): 8 µg/mL (≈ 10.4 µM)
MIC (S. aureus [8]; MRSA, clinically isolated MRSA #2935): 32 µg/mL (≈ 41.6 µM)
MIC (E. faecium [9]; ATCC35667, 20 h, E. faecium ATCC 35667, CA-MHB, 37 °C, 20 h): 2 µg/mL (≈ 2.6 µM)
MIC (E. faecium [9]; ATCC 51559 / VRE, E. faecium (VRE) ATCC 51559): 2 µg/mL (≈ 2.6 µM)
MIC (E. faecium [9]; ATCC 51858 / VRE, E. faecium (VRE) ATCC 51858): 8 µg/mL (≈ 10.4 µM)
MIC (E. faecium [9]; clinically isolated E. faecium strain 1): 2 µg/mL (≈ 2.6 µM)
MIC (E. faecium [9]; clinically isolated E. faecium strain 2): 2 µg/mL (≈ 2.6 µM)
MIC (E. faecium [9]; clinically isolated E. faecium strain 3): 4 µg/mL (≈ 5.2 µM)
MIC (E. faecium [9]; clinically isolated E. faecium strain 4): 1 µg/mL (≈ 1.3 µM)
MIC (E. faecium [9]; clinically isolated E. faecium strain 5): 2 µg/mL (≈ 2.6 µM)
MIC (E. faecium [9]; clinically isolated E. faecium strain 7): 2 µg/mL (≈ 2.6 µM)
MIC (E. faecium [9]; clinically isolated E. faecium strain 8): 2 µg/mL (≈ 2.6 µM)
MIC (E. faecium [9]; clinically isolated E. faecium strain 9): 1 µg/mL (≈ 1.3 µM)
MIC (E. faecium [9]; clinically isolated E. faecium strain 10): 1 µg/mL (≈ 1.3 µM)
MIC (E. faecium [9]; clinically isolated E. faecium strain 11): 4 µg/mL (≈ 5.2 µM)
MIC (E. faecium [9]; clinically isolated E. faecium strain 13): 1 µg/mL (≈ 1.3 µM)
MIC (E. faecium [9]; clinically isolated E. faecium strain 14): 0.5 µg/mL (≈ 0.65 µM)
MIC (E. faecium [9]; clinically isolated E. faecium strain 15): 2 µg/mL (≈ 2.6 µM)
MIC (range over strains) (E. faecium [9]; clinically isolated E. faecium (14 strains)): 0.5 to 4 µg/mL

CCCC(C)CC(C)CC(C)CC(C)/C=C(C)/C=C/C(O)C(C)C(=O)OC1C(O)CN2CC1NC[C@H]1O[C@@H](O[C@H]([C@H]3O[C@@H](n4ccc(=O)[nH]c4=O)[C@H](O)[C@@H]3OS(=O)(=O)O)[C@H]2C(=O)O)[C@H](O)[C@@H]1O (stereo partly drawn) [Sphaerimicin A]
MIC (E. cloacae [10]): >128 µg/mL
MIC (S. aureus [11]): 4^d μg/mL
MIC (S. aureus [11]; listed as sphaerimicin A): 4 µg/mL (≈ 4.1 µM)
MIC (P. aeruginosa [12]): >128^e μg/mL
MIC (E. faecalis [13]): 2 µg/mL (≈ 2.05 µM)
MIC (A. baumannii [14]): >128 µg/mL
MIC (K. pneumoniae [15]): >128 µg/mL
MIC (E. faecium [16]; (footnote c)): 2^c μg/mL
MIC (E. faecium [16]; E. faecium ATCC 19434): 2 µg/mL (≈ 2.05 µM)
IC50 (MraY (E. coli)): 13.9 nM
IC50 for MraY (MraY (E. coli)): 0.0135 µg/mL
MIC against Gram-positive bacteria (Gram-positive bacteria): 1 to 16 µg/mL
